Results reported in article PMC11910330, “Familial Alzheimer’s disease mutations in amyloid precursor protein impair calcineurin signaling to NMDA receptors” (The Journal of Biological Chemistry, 2024).
No end group written: not given here. *: point of attachment. Biotin = O=C1N[C@H]2[C@H](CS[C@H]2CCCCC(=O)*)N1

Test system: human recombinant GST-CaN
Experiment: Peptide/CaN interaction assay (biotinylated peptides on streptavidin beads, GST-CaN pull-down, Western blot)
Assay type: binding
Details: for percent of CaN recovered (signal for each/signal for CaN standard * 40%): 10 μg N-terminally biotinylated peptide on streptavidin beads, 200 ng GST-CaN, 30 min, 4 °C, Western blot, mean (n=7; APP-17mer n=3); for CaN binding relative to the APP (WT) peptide (in words): Fig. 4B, FAD mutant peptides; for Western blot data following CaN interaction with biotinylated peptides, (signal for each/signal for CaN standard) * 40%: biotinylated APP peptides, GST-CaN pull-down
Text: Recombinant rabbit monoclonal to APP (clone Y188; Abcam cat# ab32136; 1:5000 dilution), rabbit polyclonal to APLP1 (Proteintech cat # 12305-2-AP; 1:1000 dilution), and rabbit polyclonal to APLP2 (Proteintech cat # 15041-1-A; 1:500 dilution) were used to detect native APP family members on western blots or recombinant GFP-tagged APP family members as validation (see Fig. S1). A horseradish peroxidase (HRP)-conjugated goat anti-rabbit antibody (Sigma-Aldrich Cat# 12-348; 1:10,000 dilution) was used as secondary antibody for these western blots, while an HRP-conjugated mouse monoclonal antibody to GFP (Invitrogen cat # MA 515256HRP; 1:1000 dilution) was used to independently verify the expression of GFP or GFP-tagged APP family members. A mouse monoclonal antibody CaN (BD Biosciences Cat# 556350; 1:1000 dilution) was used for the detection of native and recombinant CaN on western blots and for co-immunoprecipitation and peptide-based interaction assays experiments, while nonspecific mouse IgG (Thermo Fisher Scientific Cat# 02-6502) was used as a control. An HRP-conjugated goat anti-mouse antibody (Sigma-Aldrich Cat# 12-349; 1:10,000 dilution) […] was used as secondary antibody for these western blots, while HRP-conjugated protein G (Sigma-Aldrich cat # 18-161; 1:5000 dilution) was used for the secondary detection of CaN in co-immunoprecipitation experiments. A mouse monoclonal anti-Flag antibody (Sigma-Aldrich Cat# F1804) was used for co-immunoprecipitations of recombinant APP family members, while an HRP-conjugated version of this antibody (Sigma-Aldrich Cat# A8592; 1:1000) was used for the detection on western blots.
The N-terminally biotinylated AKAP79(330-357) and Ht31peptides were synthesized by Biomolecules Midwest and used as positive and negative controls for CaN interaction as previously described ([20]).
Either PBS with fresh 0.1% Tween-20 and 0.1% bovine serum albumin added or a modified IP buffer (150 mM NaCl, 10 mM Hepes; 5 mM EDTA; pH 7.4) with fresh 0.5% CHAPSO and 0.1% bovine serum albumin was used for these assays. […] Streptavidin-coated dynabeads (20 μl; Invitrogen cat # 65601) were washed and then incubated with 10 μg biotinylated peptides for 15 min at 4 °C in 200 μl of buffer. Beads were washed rapidly (400 μl; 3×) to remove unbound peptide and then incubated with 200 ng human recombinant GST-CaN in 200 μl buffer for 30 min at 4 °C. Following three washes (400 μl; 5 min each), complexes were eluted in 40 μl 2× Laemmli buffer, and samples were separated by SDS-PAGE and analyzed by Western blotting as above. Blots were probed with the mouse monoclonal anti-CaN antibody followed by anti-mouse HRP for secondary detection and visualized by enhanced chemiluminescence and digitally acquired as above. For each blot, the intensity of each band was normalized to that of from the GST-CaN standard (80 ng). As this standard represented 40% of the 200 ng input, the ratio was multiplied by 40 to achieve the percent of CaN recovered.

| Substance | CaN binding (in words) (Fig. 1H) | percent of CaN recovered (signal for each/signal for CaN standard * 40%) (Fig. 1H) | CaN binding lower than the PVIVIT peptide (Fig. 1H) | CaN binding relative to the APP (WT) peptide (in words) | Western blot data following CaN interaction with biotinylated peptides, (signal for each/signal for CaN standard) * 40% (mean of n = 6) | Western blot data following CaN interaction with biotinylated peptides, (signal for each/signal for CaN standard) * 40% (replicate 1) | Western blot data following CaN interaction with biotinylated peptides, (signal for each/signal for CaN standard) * 40% (replicate 2) | Western blot data following CaN interaction with biotinylated peptides, (signal for each/signal for CaN standard) * 40% (replicate 3) | Western blot data following CaN interaction with biotinylated peptides, (signal for each/signal for CaN standard) * 40% (replicate 4) | Western blot data following CaN interaction with biotinylated peptides, (signal for each/signal for CaN standard) * 40% (replicate 5) | Western blot data following CaN interaction with biotinylated peptides, (signal for each/signal for CaN standard) * 40% (replicate 6) |
| --- | --- | --- | --- | --- | --- | --- | --- | --- | --- | --- | --- |
| MAGPHTVIVITGPHEE [APP] | nearly the same extent as the PVIVIT peptide | 52.92% | – | – | – | – | – | – | – | – | – |
| MAGPHSLIVLSGPHEE [APLP1] | – | 13.18% | ~80% | – | – | – | – | – | – | – | – |
| MAGPHTVFVITGPHEE [I641F, biotinylated APP peptide incorporating the FAD mutation I641F] | – | – | – | reduced substantially | 22.96% | 23.46% | 18.34% | 34.56% | 13.72% | 12.91% | 34.77% |
| MAGPHIVIVITGPHEE [T639I, biotinylated APP peptide incorporating the FAD mutation T639I] | – | – | – | – | 54.45% | 94.68% | 40.64% | 44.78% | 37.21% | 55.66% | 53.70% |
| AKAP79: N-terminally biotinylated peptide derived from the AKAP79 CaN-binding domain, positive control (Biotin-EESKRMEPIAIIITDTEISEFDVTKSKN) [reference compound] | – | 21.96% | – | – | – | – | – | – | – | – | – |
| MAGPHTVIVISGPHEE [APLP2] | – | 42.75% | ~30% | – | – | – | – | – | – | – | – |
| MAGPHTVIVIPGPHEE [T644P, biotinylated APP peptide incorporating the FAD mutation T644P] | – | – | – | reliably reduced CaN binding | 4.71% | 0.13% | 8.45% | 2.14% | 4.28% | 3.74% | 9.51% |
| MAGPHTVIFITGPHEE [V642F, biotinylated APP peptide incorporating the FAD mutation V642F] | – | – | – | – | 43.86% | 84.45% | 46.13% | 42.80% | 26.46% | 29.11% | 34.24% |
